# Experimental data as given in article PMC6522510 (Nature Communications, 2019).
# Structures can show the parent of a compound that is named as a salt.
# How the values were obtained:
# [1] = system: MV4-11; test: Secondary dose-response HTS, Cell Titer Glo; format: cell-based, human; details: Homo sapiens; secondary high-throughput screen; MV4-11; read-out: average effective concentration, MV4-11
# [2] = system: M07e; test: cells; parameters: species or system AML cell lines (8); Secondary HTS, 10-point dose-response in triplicate, Cell Titer Glo viability, four-parameter fit EC50; details: M-07e, 72 h, read-out: M07e
# [3] = system: MV4-11; test: cells; parameters: species or system AML cell lines (8); Secondary HTS, 10-point dose-response in triplicate, Cell Titer Glo viability, four-parameter fit EC50; details: Homo sapiens, MV4-11, 72 h, read-out: MV4-11
# [4] = system: CMK; test: Secondary dose-response HTS, Cell Titer Glo; format: cell-based, human; details: CMK; for average effective concentration, CMK: secondary high-throughput screen
# [5] = system: ML2; test: Secondary dose-response HTS, Cell Titer Glo; format: cell-based, human; details: secondary high-throughput screen; ML-2; read-out: average effective concentration, ML-2
# [6] = system: CHRF288-11; test: Secondary dose-response HTS, Cell Titer Glo; format: cell-based, human; details: secondary high-throughput screen; CHRF288-11
# [7] = system: U937; parameters: species or system AML cell lines (8); Primary HTS, single concentration about 10 uM, Cell Titer Glo viability; log10 luminescence, per cent inhibition relative to cycloheximide control; details: 72 h, relative to cycloheximide control, log10 luminescence; inhibitor
# [8] = system: ML-2; parameters: species or system AML cell lines (8); Primary HTS, single concentration about 10 uM, Cell Titer Glo viability; log10 luminescence, per cent inhibition relative to cycloheximide control; details: 72 h, relative to cycloheximide control, log10 luminescence; inhibitor
# [9] = system: MV4-11; parameters: species or system AML cell lines (8); Primary HTS, single concentration about 10 uM, Cell Titer Glo viability; log10 luminescence, per cent inhibition relative to cycloheximide control; details: 72 h, relative to cycloheximide control, log10 luminescence; inhibitor
# [10] = system: CMK; parameters: species or system AML cell lines (8); Primary HTS, single concentration about 10 uM, Cell Titer Glo viability; log10 luminescence, per cent inhibition relative to cycloheximide control; details: 72 h, relative to cycloheximide control, log10 luminescence; inhibitor
# [11] = system: CHRF288-11; parameters: species or system AML cell lines (8); Primary HTS, single concentration about 10 uM, Cell Titer Glo viability; log10 luminescence, per cent inhibition relative to cycloheximide control; details: 72 h, relative to cycloheximide control, log10 luminescence; inhibitor
# [12] = system: CMS; parameters: species or system AML cell lines (8); Primary HTS, single concentration about 10 uM, Cell Titer Glo viability; log10 luminescence, per cent inhibition relative to cycloheximide control; details: 72 h, relative to cycloheximide control, log10 luminescence; inhibitor
# [13] = system: M07e; parameters: species or system AML cell lines (8); Primary HTS, single concentration about 10 uM, Cell Titer Glo viability; log10 luminescence, per cent inhibition relative to cycloheximide control; details: 72 h, relative to cycloheximide control, log10 luminescence; inhibitor
# [14] = system: MOLM-13; parameters: species or system AML cell lines (8); Primary HTS, single concentration about 10 uM, Cell Titer Glo viability; log10 luminescence, per cent inhibition relative to cycloheximide control; details: 72 h, relative to cycloheximide control, log10 luminescence; inhibitor
SMILES,U937 %inh [7] [%],ML-2 %inh [8] [%],MV4-11 %inh [9] [%],CMK %inh [10] [%],CHRF288-11 %inh [11] [%],CMS %inh [12] [%],M07e %inh [13] [%],MOLM-13 %inh [14] [%],further results
CNC(=O)c1ccccc1Sc1ccc2c(/C=C/c3ccccn3)n[nH]c2c1 [AXITINIB],,,,,,,,,EC50 [1]: 1100 nM
CO[C@H](C(=O)[C@@H](O)[C@@H](C)O)[C@@H]1Cc2cc3cc(O[C@H]4C[C@@H](O[C@H]5C[C@@H](O)[C@H](O)[C@@H](C)O5)[C@H](O)[C@@H](C)O4)c(C)c(O)c3c(O)c2C(=O)[C@H]1O[C@H]1C[C@@H](O[C@H]2C[C@@H](O[C@H]3C[C@](C)(O)[C@H](O)[C@@H](C)O3)[C@@H](O)[C@@H](C)O2)[C@H](O)[C@@H](C)O1 [MITHRAMYCIN A],,,,,,,,,EC50 [2]: > 10000 nM
COC[C@H](NC(=O)c1cnc(C)s1)C(=O)N[C@@H](COC)C(=O)N[C@@H](Cc1ccccc1)C(=O)[C@@]1(C)CO1 [Oprozomib],,,,,,,,,EC50 [2]: 6.3 nM; EC50 [3]: 8.6 nM
COc1cc(OC)c(/C=C/S(=O)(=O)Cc2ccc(OC)c(NCC(=O)O)c2)c(OC)c1 [rigosertib],,,,,,,,,EC50 [2]: > 10000 nM; EC50 [3]: 12.4 nM
CC/C(=C(\c1ccccc1)c1ccc(OCCN(C)C)cc1)c1ccccc1 [TAMOXIFEN CITRATE],,,,,,,,,EC50 [3]: > 10000 nM
C=CCn1c(=O)c2cnc(Nc3ccc(N4CCN(C)CC4)cc3)nc2n1-c1cccc(C(C)(C)O)n1 [MK-1775],,,,,,,,,EC50 [2]: > 10000 nM
"CS(=O)(=O)N1CCN(Cc2cc3nc(-c4cccc5[nH]ncc45)nc(N4CCOCC4)c3s2)CC1 [Pictilisib, reference compound]",,,,,,,,,"EC50 ([4]; Homo sapiens, read-out: average effective concentration, CMK): 2300 nM"
O=C1c2c(O)ccc(O)c2C(=O)c2c(NCCNCCO)ccc(NCCNCCO)c21 [MITOXANTHRONE],,,,,,,,,EC50 [5]: 240 nM
CCNC(=O)C[C@@H]1N=C(c2ccc(Cl)cc2)c2cc(OC)ccc2-n2c(C)nnc21 [I-BET-762],,,,,,,,,"average effective concentration, CHRF288-11 [6]: Inactive; average effective concentration, CMK [4]: Inactive"
Cc1cc(Nc2ccc(NC(=O)c3ccc(Nc4ccnc5ccccc45)cc3)cc2)nc(N)n1 [SGI-1027],,,,,,,,,"average effective concentration, CMK [4]: Inactive"
Cn1cccc1/C=C1\C(=O)NC(=O)c2ccccc21 [BYK 204165],,,,,,,,,"average effective concentration, CMK [4]: Inactive"
COc1ccc(-c2nc(N3CCOCC3)c3sc(CN(C)c4ncc(C(=O)NO)cn4)cc3n2)cn1 [CUDC-907],,,,,,,,,EC50 [3]: 0.21 nM
"CC(C)(Oc1ccc(Cl)cc1)C(=O)O [SJ000285361-4, CLOFIBRIC ACID]",12.99,4.873,17.98,-0.9561,12.15,10.42,1.241,6.685,
"CNC(=O)c1cc(-c2ccc(F)cc2)cc(-c2ccc(S(=O)(=O)N3CCCC3)cc2)c1N [SJ000573128-1, R11976/170/3]",15.8,6.119,2.522,31.99,14.81,9.624,5.294,10.13,
CC(=O)N[C@@H](Cc1ccc(OP(=O)(O)O)cc1)C(=O)N[C@H]1CCC(=O)N2CCC[C@@H](C(=O)NCc3ccc(O)cc3)N2C1=O [SJ000581139-1],-0.05209,-0.8925,1.337,0.1299,-2.024,2.649,2.301,2.506,
CN1C[C@@H]2Cn3c(c(C4=C(c5cn(C)c6ccccc56)C(=O)NC4=O)c4ccccc43)C[C@H]2C1 [SJ000581133-2],4.609,1.581,12.86,11.96,9.973,-1.372,4.251,14.65,
"Fc1ccc(-c2ncn(C3CCNCC3)c2-c2ccnc(Oc3ccccc3)n2)cc1 [SJ000573013-1, JB19236-077B1]",2.101,1.79,0.9088,-1.927,6.56,-0.5294,0.9358,-2.821,
"CCCCC1C(=O)N(c2ccccc2)N(c2ccc(O)cc2)C1=O (stereo not drawn) [SJ000285591-4, OXYPHENBUTAZONE]",81.76,63.81,79.54,-9.457,-1.743,98.27,119.6,-3.833,
CS(=O)(=O)CCn1c(=O)c(Oc2ccc(F)cc2F)cc2cnc(NC3CCOCC3)nc21 [SJ000581023-1],-0.5257,0.4592,1.997,0.4611,8.185,-0.4321,1.483,-0.00779,
"COc1cccc(Nc2nccc(-c3cnn4ncccc34)n2)c1 [SJ000573028-1, U18020/75/1]",74.45,57.03,76.07,112.7,61.5,93.88,96.77,96.5,
"COc1ccc(CNC(=O)c2ccc(-c3cc(-c4nnc(C)o4)ccc3C)cc2)cc1 [SJ000573240-1, R5419/62/2]",0.2137,2.422,-0.02622,-2.585,2.517,-0.9608,1.245,2.636,
C=CC1=C(C(=O)O)N2C(=O)[C@@H](NC(=O)/C(=N\O)c3csc(N)n3)[C@H]2SC1 [SJ000286082-3],3.234,2.212,0.05121,1.925,4.774,3.32,3.525,11.38,
CCCn1cc(C2=C(c3cn(C)c4ccccc34)C(=O)NC2=O)c2ccccc21 [SJ000580980-1],35.21,30.17,13.35,44.58,31.26,13.73,35.81,64.41,
Fc1ccc(-c2c(-c3ccncc3)[nH]c3nccnc23)cc1 [SJ000580991-1],0.7484,-4.337,-5.653,11.62,0.1739,2.205,-1.27,-0.4618,
